Data published in patent US9249129B2, “Morpholino substituted urea derivatives as mTOR inhibitors” (CELLZOME LIMITED, priority 2010, dated 2016).
Read-outs that look alike come from different tables or passages of the source.

Experiments:
Type in all cases: binding
[1] = target: T1, mTOR (Homo sapiens, UniProt P42345); experiment: mTOR kinobeads assay (dot blot detection)
T1 construct: endogenous in cells; host or cells: Jurkat cells (ATCC TIB-152, clone E6-1), lysate
Experimental: (§1) The compounds of the present invention as described were tested in the mTOR kinobeads assay as described below. Briefly, test compounds (at various concentrations) and the affinity matrix (1:1 mixture of beads with immobilized phenylthiazole ligand 1 and beads with immobilized phenylmorpholin-chromen ligand; WO 2009/098021) were added to cell lysate aliquots and allowed to bind to the proteins in the lysate sample. After the incubation time the beads with captured proteins were separated from the lysate. Bound proteins were then eluted and the presence of mTOR, PI3K delta (PI3 Kd) and DNA-dependent protein kinase (DNA-PK) was detected and quantified using a specific antibody in a dot blot procedure and the Odyssey infrared detection system. Dose response curves for individual kinases were generated and IC50 values calculated. Kinobeads assays for PI3 kinases (WO-A 2008/015013) and for kinase selectivity profiling (WO 2009/098021) have been previously described.
(§2) The affinity matrix (beads with immobilized phenylmorpholin-chromen ligand) was washed two times with 15 ml of 1×DP buffer containing 0.2% NP40 (IGEPAL® CA-630, Sigma, #13021) and then resupended in 5.5 ml of 1×DP buffer containing 0.2% NP40 (10% beads slurry).
(§3) 5×DP buffer: 250 mM Tris-HCl pH 7.4, 25% Glycerol, 7.5 mM MgCl2, 750 mM NaCl, 5 mM Na3VO4, filter the 5×-lysis buffer through 0.22 μm filter and store in aliquots at −80° C. The 5×DP buffer is diluted to 1×DP buffer containing 1 mM DTT and 25 mM NaF.
(§4) Stock solutions of test compounds were prepared in DMSO. In a 96 well plate 30 μl solution of diluted test compounds at 5 mM in DMSO were prepared. Starting with this solution a 1:3 dilution series (9 steps) was prepared. For control experiments (no test compound) a buffer containing 2% DMSO was used. Compound CZC00018052 served as a positive control (PI-103; Calbiochem catalogue number 528100).
(§5) Jurkat cells (ATCC catalogue number TIB-152 Jurkat, clone E6-1) were grown in 1 litre Spinner flasks (Integra Biosciences, #182101) in suspension in RPMI 1640 medium (Invitrogen, #21875-034) supplemented with 10% Fetal Bovine Serum (Invitrogen) at a density between 0.15×10^6 and 1.2×10^6 cells/ml. Cells were harvested by centrifugation, washed once with 1×PBS buffer (Invitrogen, #14190-094) and cell pellets were frozen in liquid nitrogen and subsequently stored at −80° C.
(§6) Jurkat cells were homogenized in a Potter S homogenizer in lysis buffer: 50 mM Tris-HCl, 0.8% NP40, 5% glycerol, 150 mM NaCl, 1.5 mM MgCl2, 25 mM NaF, 1 mM sodium vanadate, 1 mM DTT, pH 7.5. One complete EDTA-free tablet (protease inhibitor cocktail, Roche Diagnostics, 1873580) per 25 ml buffer was added. The material was dounced 10 times using a mechanized POTTER S, transferred to 50 ml falcon tubes, incubated for 30 minutes on ice and spun down for 10 min at 20,000 g at 4° C. (10,000 rpm in Sorvall SLA600, precooled). The supernatant was transferred to an ultracentrifuge (UZ)-polycarbonate tube (Beckmann, 355654) and spun for 1 hour at 100.000 g at 4° C. (33.500 rpm in Ti50.2, precooled). The supernatant was transferred again to a fresh 50 ml falcon tube, the protein concentration was determined by a Bradford assay (BioRad) and samples containing 50 mg of protein per aliquot were prepared. The samples were immediately used for experiments or frozen in liquid nitrogen and stored frozen at −80° C.
(§7) Jurkat cell lysate (approximately 50 mg protein per plate) was thawed in a water bath at room temperature and then kept on ice. To the thawed cell lysate 1×DP 0.8% NP40 buffer containing protease inhibitors (1 tablet for 25 ml buffer; EDTA-free protease inhibitor cocktail; Roche Diagnostics 1873580) was added in order to reach a final protein concentration of 5 mg/ml total protein. The diluted cell lysate was stored on ice. […]

[2] = target: T2, PI3K delta (PI3Kd) (Homo sapiens, UniProt O00329); experiment: kinobeads assay, PI3K delta (dot blot detection)
T2 construct: endogenous in cells; host or cells: Jurkat cells (ATCC TIB-152, clone E6-1), lysate
Experimental: as §1, §2, §3, §4, §5, §6, §7

[3] = target: T3, DNA-dependent protein kinase (DNA-PK) (Homo sapiens, UniProt P78527); experiment: kinobeads assay, DNA-PK (dot blot detection)
T3 construct: endogenous in cells; host or cells: Jurkat cells (ATCC TIB-152, clone E6-1), lysate
Experimental: as §1, §2, §3, §4, §5, §6, §7

[4] = Table 2, Jurkat cell lysate, read-out: Inhibition values (IC50) mTor
[5] = Table 4, read-out: Inhibition values (IC50) mTOR
[6] = Table 2, Jurkat cell lysate, read-out: Inhibition values (IC50) PI3Kd
[7] = Table 4, read-out: Inhibition values (IC50) PI3Kd
[8] = Table 2, Jurkat cell lysate, read-out: Inhibition values (IC50) DNAPK
[9] = Table 4, read-out: Inhibition values (IC50) DNAPK

T2 sequence (O00329 whole entry): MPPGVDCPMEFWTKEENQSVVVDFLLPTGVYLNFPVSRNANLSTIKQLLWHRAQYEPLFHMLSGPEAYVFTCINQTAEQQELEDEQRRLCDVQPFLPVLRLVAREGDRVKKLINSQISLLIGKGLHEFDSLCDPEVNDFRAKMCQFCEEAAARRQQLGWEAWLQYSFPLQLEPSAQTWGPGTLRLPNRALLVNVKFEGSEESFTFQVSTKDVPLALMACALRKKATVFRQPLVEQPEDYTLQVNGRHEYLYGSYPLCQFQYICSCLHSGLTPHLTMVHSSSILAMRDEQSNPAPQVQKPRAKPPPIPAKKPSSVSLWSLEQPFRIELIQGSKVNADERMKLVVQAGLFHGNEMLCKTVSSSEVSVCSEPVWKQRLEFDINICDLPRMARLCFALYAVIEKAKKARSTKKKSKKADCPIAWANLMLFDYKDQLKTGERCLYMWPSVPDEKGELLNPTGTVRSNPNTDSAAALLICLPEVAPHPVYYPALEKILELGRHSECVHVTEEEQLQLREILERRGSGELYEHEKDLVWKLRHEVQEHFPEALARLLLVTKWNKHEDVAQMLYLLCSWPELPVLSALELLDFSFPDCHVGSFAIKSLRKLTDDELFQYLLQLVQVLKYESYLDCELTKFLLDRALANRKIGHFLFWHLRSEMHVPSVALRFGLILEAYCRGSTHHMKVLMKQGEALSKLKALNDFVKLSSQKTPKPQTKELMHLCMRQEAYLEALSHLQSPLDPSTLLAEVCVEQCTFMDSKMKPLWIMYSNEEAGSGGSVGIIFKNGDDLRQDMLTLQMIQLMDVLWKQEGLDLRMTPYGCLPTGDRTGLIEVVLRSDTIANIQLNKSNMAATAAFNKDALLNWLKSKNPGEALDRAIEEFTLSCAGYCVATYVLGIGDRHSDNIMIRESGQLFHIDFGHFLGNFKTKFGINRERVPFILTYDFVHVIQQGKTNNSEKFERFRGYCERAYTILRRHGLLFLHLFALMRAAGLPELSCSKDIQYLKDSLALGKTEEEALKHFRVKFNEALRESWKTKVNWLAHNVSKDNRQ
T2 sequence (P27986 whole entry partner): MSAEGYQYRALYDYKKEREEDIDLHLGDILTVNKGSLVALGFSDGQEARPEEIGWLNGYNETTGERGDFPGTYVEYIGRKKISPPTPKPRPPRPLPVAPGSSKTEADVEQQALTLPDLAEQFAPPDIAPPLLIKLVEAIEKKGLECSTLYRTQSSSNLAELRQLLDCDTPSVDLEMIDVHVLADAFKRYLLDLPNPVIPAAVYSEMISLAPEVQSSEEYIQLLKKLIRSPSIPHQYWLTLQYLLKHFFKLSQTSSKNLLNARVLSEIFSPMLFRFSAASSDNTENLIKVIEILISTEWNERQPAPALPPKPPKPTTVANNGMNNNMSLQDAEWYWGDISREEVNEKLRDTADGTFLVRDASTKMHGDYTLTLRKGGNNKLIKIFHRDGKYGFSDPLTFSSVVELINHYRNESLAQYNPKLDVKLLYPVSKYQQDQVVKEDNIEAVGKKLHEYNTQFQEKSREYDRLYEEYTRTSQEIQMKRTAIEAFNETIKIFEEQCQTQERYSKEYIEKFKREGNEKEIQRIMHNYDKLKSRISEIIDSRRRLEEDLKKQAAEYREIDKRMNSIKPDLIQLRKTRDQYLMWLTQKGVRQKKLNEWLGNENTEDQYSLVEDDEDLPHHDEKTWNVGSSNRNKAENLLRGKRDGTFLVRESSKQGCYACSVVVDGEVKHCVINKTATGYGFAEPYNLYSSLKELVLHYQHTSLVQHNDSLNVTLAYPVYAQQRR

Row | IC50 [1, 4] [µM] | IC50 [1, 5] [µM] | IC50 [2, 6] [µM] | IC50 [2, 7] [µM] | IC50 [3, 8] [µM] | IC50 [3, 9] [µM] | SMILES
1 | 1 to 10 | 1 to 10 | 1 to 10 | 1 to 10 | 1 to 10 | 1 to 10 | CNC(=O)Nc1ccc(-c2nccc(N3CCOCC3)n2)cc1 [Example 27, 1-methyl-3-(4-(4-morpholinopyrimidin-2-yl)phenyl)urea]
2 | 1 to 10 | 1 to 10 | ≥ 10 | ≥ 10 | 1 to 10 | 1 to 10 | CCCNC(=O)Nc1ccc(-c2nccc(N3CCOCC3)n2)cc1 [Example 32, 1-(4-(4-morpholinopyrimidin-2-yl)phenyl)-3-propylurea]
3 | 1 to 10 | 1 to 10 | ≥ 10 | ≥ 10 | ≥ 10 | ≥ 10 | CCNC(=O)Nc1ccc(-c2cc(-c3ccccc3C(N)=O)nc(N3CCOC[C@@H]3C)n2)cc1 [Example 12, (S)-2-(6-(4-(3-ethylureido)phenyl)-2-(3-methylmorpholino)pyrimidin-4-yl)benzamide]
4 | 1 to 10 | 1 to 10 | 1 to 10 | 1 to 10 | 1 to 10 | 1 to 10 | NC(=O)Nc1ccc(-c2nccc(N3CCOCC3)n2)cc1 [Example 33, 1-(4-(4-morpholinopyrimidin-2-yl)phenyl)urea]
5 | 1 to 10 | 1 to 10 | ≥ 10 | ≥ 10 | ≥ 10 | ≥ 10 | CCNC(=O)Nc1ccc(-c2cc(-c3ccccc3C(=O)O)nc(N3CCOC[C@@H]3C)n2)cc1 [Example 11, (S)-2-(6-(4-(3-ethylureido)phenyl)-2-(3-methylmorpholino)pyrimidin-4-yl)benzoic acid]
6 | 1 to 10 | 1 to 10 | ≥ 10 | ≥ 10 | 1 to 10 | 1 to 10 | CCNC(=O)Nc1ccc(-c2nccc(N3CCOCC3)n2)cc1 [Example 36, 1-ethyl-3-(4-(4-morpholinopyrimidin-2-yl)phenyl)urea]
7 | 1 to 10 | 1 to 10 | ≥ 10 | ≥ 10 | ≥ 10 | ≥ 10 | CCNC(=O)Nc1ccc(-c2cc(-c3ccccc3S(=O)(=O)NC)nc(N3CCOCC3)n2)cc1 [Example 19, 2-(6-(4-(3-ethylureido)phenyl)-2-morpholinopyrimidin-4-yl)-N-methylbenzenesulfonamide]
8 | 1 to 10 | 1 to 10 | ≥ 10 | ≥ 10 | ≥ 10 | ≥ 10 | C[C@H]1COCCN1c1cc(-c2cccc(S(C)(=O)=O)c2)nc(-c2ccc(NC(=O)NC3CC3)cc2)n1 [Example 5, (S)-1-cyclopropyl-3-(4-(4-(3-methylmorpholino)-6-(3-(methylsulfonyl)phenyl)pyrimidin-2-yl)phenyl)urea]
9 | 1 to 10 | 1 to 10 | ≥ 10 | ≥ 10 | ≥ 10 | ≥ 10 | CCNC(=O)Nc1ccc(-c2cc(-c3cc[nH]n3)nc(N3CCOC[C@@H]3C)n2)cc1 [Example 18, (S)-1-ethyl-3-(4-(2-(3-methylmorpholino)-6-(1H-pyrazol-3-yl)pyrimidin-4-yl)phenyl)urea]
10 | 1 to 10 | 1 to 10 | ≥ 10 | ≥ 10 | ≥ 10 | ≥ 10 | CCNC(=O)Nc1ccc(-c2cc(-c3ccccc3S(C)(=O)=O)nc(N3CCOCC3)n2)cc1 [Example 20, 1-ethyl-3-(4-(6-(2-(methylsulfonyl)phenyl)-2-morpholinopyrimidin-4-yl)phenyl)urea]
11 | 1 to 10 | 1 to 10 | ≥ 10 | ≥ 10 | ≥ 10 | ≥ 10 | CCNC(=O)Nc1ccc(-c2cc(-c3ccncc3)nc(N3CCOC[C@@H]3C)n2)cc1 [Example 13, (S)-1-ethyl-3-(4-(2-(3-methylmorpholino)-6-(pyridin-4-yl)pyrimidin-4-yl)phenyl)urea]
12 | 1 to 10 | 1 to 10 | ≥ 10 | ≥ 10 | ≥ 10 | ≥ 10 | CCNC(=O)Nc1ccc(-c2cc(-c3ccccc3NS(C)(=O)=O)nc(N3CCOC[C@@H]3C)n2)cc1 [Example 9, (S)—N-(2-(6-(4-(3-ethylureido)phenyl)-2-(3-methylmorpholino)pyrimidin-4-yl)phenyl)methanesulfonamide]
13 | 1 to 10 | 1 to 10 | ≥ 10 | ≥ 10 | ≥ 10 | ≥ 10 | CCNC(=O)Nc1ccc(-c2cc(-c3ccccc3CO)nc(N3CCOC[C@@H]3C)n2)cc1 [Example 16, (S)-1-ethyl-3-(4-(6-(2-(hydroxymethyl)phenyl)-2-(3-methylmorpholino)pyrimidin-4-yl)phenyl)urea]
14 | 1 to 10 | 1 to 10 | ≥ 10 | ≥ 10 | ≥ 10 | ≥ 10 | O=C(Nc1ccc(-c2cc(-c3cccnc3)nc(N3CCOCC3)n2)cc1)NC1CC1 [Example 1, 1-cyclopropyl-3-(4-(2-morpholino-6-(pyridin-3-yl)pyrimidin-4-yl)phenyl)urea]
15 | 1 to 10 | 1 to 10 | ≥ 10 | ≥ 10 | ≥ 10 | ≥ 10 | CCNC(=O)Nc1ccc(-c2cc(-c3ccccc3NC(C)=O)nc(N3CCOC[C@@H]3C)n2)cc1 [Example 10, (S)—N-(2-(6-(4-(3-ethylureido)phenyl)-2-(3-methylmorpholino)pyrimidin-4-yl)phenyl)acetamide]
16 | 1 to 10 | 1 to 10 | ≥ 10 | ≥ 10 | 1 to 10 | 1 to 10 | CCCNC(=O)Nc1ccc(-c2ccnc(N3CCOCC3)n2)cc1 [Example 31, 1-propyl-3-(4-(2-morpholinopyrimidin-4-yl)phenyl)urea]
